Measured values from US7192953B2, “Antibacterial agents” (Vernalis (Oxford) Limited, priority 2002, dated 2007).
In brackets after ≈: the same amount, converted by molar mass. Each block holds one compound with its values, some of them ahead of it.

Assays:
Assay type in all cases: cell-based
[1] = system: S. pneumoniae; experiment: MIC by agar plate dilution against clinical isolates of S. pneumoniae; settings: 6 strains of S. pneumoniae (clinical isolates), 18 to 24 hr, 35° C; for MIC: Streptococcus pneumoniae, read-out: MIC or MIC range, S. pneumoniae
Experimental: (§1) Minimal Inhibitory concentrations (MIC) of inhibitors against clinical isolates of S. pneumoniae, H. influenzae and M. catarrhalis obtained from the Public Health and Clinical Microbiology Laboratory, Addenbrooke's Hospital, Hills Road, Cambridge CB2 2QW, UK, were determined by a standard agar plate dilution method following recommended in British Society for Antimicrobial Chemotherapy Working Party. 1991. “A guide to sensitivity testing British Society for Antimicrobial Chemotherapy, London, United Kingdom”. Briefly Iso-Sensitest agar (pH 7.2: Oxoid, United Kingdom) was employed supplemented with 5% horse blood (Oxoid) and 20 μg of NAD (Sigma) per ml to support growth of fastidious bacteria. The inoculum used was approximately 10^4 colony forming units of each isolate contained in a volume of 1 μl. Plates were incubated 18 to 24 hr in air, or for fastidious bacteria an atmosphere enriched with 4–6% carbon dioxide at 35° C. The MIC was determined as the lowest concentration of an antimicrobial tested that inhibited growth of the inoculum, disregarding a single persisting colony or faint haze caused by the inoculation.
(§2) The compounds of the Examples were are antibacterially active in the above assays, The following table states the MICs or MIC ranges of the tested compounds against 6 strains of S. pneumoniae, 4 strains of H. influenzae and 3 strains of M. catarrhalis.

[2] = system: H. influenzae; experiment: MIC by agar plate dilution against clinical isolates of H. influenzae; settings: 4 strains of H. influenzae (clinical isolates), 18 to 24 hr, 35° C; for MIC: Haemophilus influenzae, read-out: MIC or MIC range, H. Influenzae
Experimental: as §1, §2

[3] = system: M. catarrhalis; experiment: MIC by agar plate dilution against clinical isolates of M. catarrhalis; settings: 3 strains of M. catarrhalis (clinical isolates), 18 to 24 hr, 35° C; for MIC: Moraxella catarrhalis, read-out: MIC or MIC range, M. catarrhalis
Experimental: as §1, §2

SMILES: COCC(=O)N1CCCCN1C(=O)[C@H](CC1CCCC1)CN(O)C=O [Example 2, N-{(2R)-Cyclopentylmethyl-3-[2-(2-methoxyacetyl)tetrahydropyridazin-1-yl]-3-oxo-propyl}-N-hydroxyformamide]
MIC [1]: 1 to 8 µg/mL (≈ 2.81 to 22.5 µM)
MIC [2]: 0.25 to 8 µg/mL (≈ 0.703 to 22.5 µM)
MIC [3]: 0.25 µg/mL (≈ 0.703 µM)

SMILES: O=CN(O)C[C@@H](CC1CCCC1)C(=O)N1CCCCN1C(=O)c1ccncc1 [Example 5, N-{(2R)-Cyclopentylmethyl-3-[2-(pyridine-4-Carbonyl)-tetrahydropyridazin-1-yl]-3-oxo-propyl}-N-hydroxyformamide]
MIC [1]: 2 to 16 µg/mL (≈ 5.15 to 41.2 µM)
MIC [3]: 0.25 µg/mL (≈ 0.644 µM)

SMILES: O=CN(O)C[C@@H](CC1CCCC1)C(=O)N1CCCCN1C(=O)c1ccc(N2CCOCC2)nc1 [Example 12, N-{(2R)-Cyclopentylmethyl-3-[2-(6-morpholin-4-yl-pyridine-3-Carbonyl)-tetrahydropyridazin-1-yl]-3-oxo-propyl}N-hydroxyformamide]
MIC [1]: 2 to 16 µg/mL (≈ 4.22 to 33.8 µM)
MIC [2]: 16 to 32 µg/mL (≈ 33.8 to 67.6 µM)
MIC [3]: 1 µg/mL (≈ 2.11 µM)

SMILES: O=CN(O)C[C@@H](CC1CCCC1)C(=O)N1CCCCN1C(=O)Nc1cc(C(F)(F)F)cc(C(F)(F)F)c1 [Example 13, 2-[(2R)-Cyclopentylmethyl-3-(formylhydroxyamino)-propionyl]-tetrahydropyridazine-1-Carboxylic acid (3,5-bis-(trifluoromethyl)phenyl)amide]
MIC or MIC range, S. pneumoniae [1]: 8 to 16 µg/mL
MIC or MIC range, M. catarrhalis [3]: 2 µg/mL (≈ 3.71 µM)

SMILES: O=CN(O)C[C@@H](CC1CCCC1)C(=O)N1CCCCN1C(=O)Nc1ccc(F)cc1 [Example 16, 2-[(2R)-Cyclopentylmethyl-3-(formylhydroxyamino)propionyl]-tetrahydropyridazine-1-Carboxylic acid (4-fluorophenyl)amide]
MIC [1]: 4 to 8 µg/mL (≈ 9.51 to 19 µM)
MIC [2]: 0.125 to 4 µg/mL (≈ 0.297 to 9.51 µM)
MIC [3]: < 0.125 µg/mL

SMILES: O=CN(O)C[C@@H](CC1CCCC1)C(=O)N1CCCCN1C(=O)Nc1ccc(F)cc1F [Example 17, 2-[(2R)-Cyclopentylmethyl-3-(formylhydroxyamino)-propionyl]-tetrahydropyridazine-1-Carboxylic acid (2,4-bis(fluoro)phenyl)amide]
MIC [1]: 4 to 8 µg/mL (≈ 9.12 to 18.2 µM)
MIC [2]: 0.125 µg/mL (≈ 0.285 µM)
MIC [3]: < 0.125 µg/mL

SMILES: COc1ccccc1NC(=O)N1CCCCN1C(=O)[C@H](CC1CCCC1)CN(O)C=O [Example 20, 2-[(2R)-Cyclopentylmethyl-3-(formylhydroxyamino)-propionyl]-tetrahydropyridazine-1-Carboxylic acid (2-methoxyphenyl)amide]
MIC [1]: 4 to 8 µg/mL (≈ 9.25 to 18.5 µM)
MIC [2]: 0.5 to 2 µg/mL (≈ 1.16 to 4.62 µM)
MIC [3]: < 0.03 µg/mL

SMILES: O=CN(O)C[C@@H](CC1CCCC1)C(=O)N1CCCCN1C(=O)N1CCC(Cc2ccccc2)CC1 [Example 22, N-{(2R)-Cyclopentylmethyl-3-[2-(4-benzylpiperidine-1-Carbonyl)-tetrahydropyridazin-1-yl]-3-oxo-propyl}-N-hydroxyformamide]
MIC [1]: 4 to 16 µg/mL (≈ 8.25 to 33 µM)
MIC [3]: 2 µg/mL (≈ 4.13 µM)

SMILES: O=CN(O)C[C@@H](CC1CCCC1)C(=O)N1CCCN1C(=O)c1ccncc1 [Example 30, N-{(2R)-Cyclopentylmethyl-3-[2-(pyridine-4-Carbonyl)-pyrazolidin-1-yl]-3-oxo-propyl}-N-hydroxyformamide]
MIC [1]: 16 to 32 µg/mL (≈ 42.7 to 85.5 µM)
MIC [3]: 0.125 µg/mL (≈ 0.334 µM)

SMILES: O=CN(O)C[C@@H](CC1CCCC1)C(=O)N1CCCN1C(=O)c1ccoc1 [Example 37, N-{(2R)-Cyclopentylmethyl-3-[2-(furan-3-Carbonyl)-pyrazolidin-1-yl]-3-oxo-propyl}-N-hydroxyformamide]
MIC [1]: 4 µg/mL (≈ 11 µM)
MIC [3]: 0.06 µg/mL (≈ 0.165 µM)

SMILES: O=CN(O)C[C@@H](CC1CCCC1)C(=O)N1CCCN1C(=O)Nc1ccc(C(F)(F)F)cc1 [Example 42, 2-[(2R)-Cyclopentylmethyl-3-(formylhydroxyamino)-propionyl]-pyrazolidine-1-Carboxylic acid (4-trifluoromethylphenyl)amide]
MIC [1]: 2 to 8 µg/mL (≈ 4.38 to 17.5 µM)
MIC [2]: 2 to 8 µg/mL (≈ 4.38 to 17.5 µM)

SMILES: CN(C(=O)N1CCCN1C(=O)[C@H](CC1CCCC1)CN(O)C=O)c1ccccc1 [Example 43, 2-[(2R)-Cyclopentylmethyl-3-(formylhydroxyamino)-propionyl]-pyrazolidine-1-Carboxylic acid methylphenylamide]
MIC or MIC range, H. Influenzae [2]: 16 to 32 µg/mL
MIC or MIC range, M. catarrhalis [3]: 8 µg/mL (≈ 19.9 µM)

SMILES: O=C(C[C@@H](CC1CCCC1)C(=O)N1CCCCN1C(=O)Nc1ccccc1)NO [Example 45, 2-[(2R)-Cyclopentylmethyl-3-hydroxycarbamoylpropionyl]-tetrahydropyridazine-1-Carboxylic acid phenylamide]
MIC or MIC range, S. pneumoniae [1]: 4 to 8 µg/mL
MIC or MIC range, H. Influenzae [2]: 1 to 4 µg/mL

Now from value to compound:

MIC [1]: 0.5 to 2 µg/mL (≈ 1.29 to 5.16 µM)
MIC [2]: 1 to 4 µg/mL (≈ 2.58 to 10.3 µM)
MIC [3]: 0.125 µg/mL (≈ 0.323 µM)
SMILES: O=CN(O)C[C@@H](CC1CCCC1)C(=O)N1CCCCN1C(=O)c1ccccc1 [Example 3, N-{(2R)-Cyclopentylmethyl-3-[2-benzoyl-tetrahydropyridazin-1-yl]-3-oxo-propyl}-N-hydroxyformamide]

MIC [1]: 0.5 to 4 µg/mL (≈ 1.1 to 8.78 µM)
MIC [3]: 0.5 µg/mL (≈ 1.1 µM)
SMILES: O=CN(O)C[C@@H](CC1CCCC1)C(=O)N1CCCCN1C(=O)c1ccc(C(F)(F)F)cc1 [Example 4, N-{(2R)-Cyclopentylmethyl-3-[2-(4-trifluoromethylbenzoyl)-tetrahydropyridazin-1-yl]-3-oxo-propyl}-N-hydroxyformamide]

MIC [1]: 0.5 to 2 µg/mL (≈ 1.27 to 5.08 µM)
MIC [2]: 4 to 8 µg/mL (≈ 10.2 to 20.3 µM)
MIC [3]: 0.06 µg/mL (≈ 0.152 µM)
SMILES: O=CN(O)C[C@@H](CC1CCCC1)C(=O)N1CCCCN1C(=O)C1CCCCC1 [Example 6, N-{(2R)-Cyclopentylmethyl-3-[2-Cyclohexanecarbonyl-tetrahydropyridazin-1-yl]-3-oxo-propyl}-N-hydroxyformamide]

MIC [1]: 0.5 to 4 µg/mL (≈ 1.2 to 9.58 µM)
MIC [3]: 0.5 µg/mL (≈ 1.2 µM)
SMILES: COc1ccc(C(=O)N2CCCCN2C(=O)[C@H](CC2CCCC2)CN(O)C=O)cc1 [Example 7, N-{(2R)-Cyclopentylmethyl-3-[2-(4-methoxybenzoyl)-tetrahydropyridazin-1-yl]-3-oxo-propyl}-N-hydroxyformamide]

MIC [1]: 0.5 to 4 µg/mL (≈ 1.16 to 9.27 µM)
MIC [2]: 1 to 8 µg/mL (≈ 2.32 to 18.5 µM)
MIC [3]: 0.5 µg/mL (≈ 1.16 µM)
SMILES: O=CN(O)C[C@@H](CC1CCCC1)C(=O)N1CCCCN1C(=O)c1ccc2c(c1)OCO2 [Example 8, N-{(2R)-Cyclopentylmethyl-3-[2-(benzo[1,3]dioxole-5carbonyl)-tetrahydropyridazin-1-yl]-3-oxo-propyl}-N-hydroxyformamide]

MIC [1]: 0.5 to 2 µg/mL (≈ 1.32 to 5.3 µM)
MIC [2]: 0.125 to 8 µg/mL (≈ 0.331 to 21.2 µM)
MIC [3]: < 0.93 µg/mL
SMILES: O=CN(O)C[C@@H](CC1CCCC1)C(=O)N1CCCCN1C(=O)c1ccoc1 [Example 9, N-{(2R)-Cyclopentylmethyl-3-[2-(furan-3-Carbonyl)-tetrahydropyridazin-1-yl]-3-oxo-propyl}-N-hydroxyformamide]

MIC [1]: 0.5 to 4 µg/mL (≈ 1.23 to 9.87 µM)
MIC [2]: 0.5 to 2 µg/mL (≈ 1.23 to 4.93 µM)
MIC [3]: 0.5 µg/mL (≈ 1.23 µM)
SMILES: O=CN(O)C[C@@H](CC1CCCC1)C(=O)N1CCCCN1C(=O)c1ccc(F)cc1 [Example 10, N-{(2R)-Cyclopentylmethyl-3-[2-(4-fluorobenzoyl)-tetrahydropyridazin-1-yl]-3-oxo-propyl}-N-hydroxyformamide]

MIC [1]: 0.5 to 4 µg/mL (≈ 1.25 to 9.96 µM)
MIC [2]: 0.25 to 2 µg/mL (≈ 0.623 to 4.98 µM)
MIC [3]: 0.25 µg/mL (≈ 0.623 µM)
SMILES: O=CN(O)C[C@@H](CC1CCCC1)C(=O)N1CCCCN1C(=O)Cc1ccccc1 [Example 11, N-{(2R)-Cyclopentylmethyl-3-[2-phenylacetyl-tetrahydropyridazin-1-yl]-3-oxo-propyl}-N-hydroxyformamide]

MIC [1]: 2 to 4 µg/mL (≈ 4.97 to 9.94 µM)
MIC [2]: 0.125 to 4 µg/mL (≈ 0.311 to 9.94 µM)
MIC [3]: < 0.125 µg/mL
SMILES: O=CN(O)C[C@@H](CC1CCCC1)C(=O)N1CCCCN1C(=O)Nc1ccccc1 [Example 14, 2-[(2R)-Cyclopentylmethyl-3-(formylhydroxyamino)-propionyl]-tetrahydropyridazine-1-Carboxylic acid phenylamide]

MIC [1]: 2 to 4 µg/mL (≈ 4.62 to 9.25 µM)
MIC [2]: 0.125 to 4 µg/mL (≈ 0.289 to 9.25 µM)
MIC [3]: < 0.125 µg/mL
SMILES: COc1cccc(NC(=O)N2CCCCN2C(=O)[C@H](CC2CCCC2)CN(O)C=O)c1 [Example 15, 2-[(2R)-Cyclopentylmethyl-3-(formylhydroxyamino)-propionyl]-tetrahydropyridazine-1-Carboxylic acid (3-methoxyphenyl)amide]

MIC [1]: 4 µg/mL (≈ 8.5 µM)
MIC [2]: 0.25 to 16 µg/mL (≈ 0.531 to 34 µM)
MIC [3]: < 0.125 µg/mL
SMILES: O=CN(O)C[C@@H](CC1CCCC1)C(=O)N1CCCCN1C(=O)Nc1ccc(C(F)(F)F)cc1 [Example 18, 2-[(2R)-Cyclopentylmethyl-3-(formylhydroxyamino)-propionyl]-tetrahydropyridazine-1-Carboxylic acid (4-trifluoromethylphenyl)amide]

MIC [1]: 2 to 4 µg/mL (≈ 4.34 to 8.69 µM)
MIC [2]: 0.125 to 4 µg/mL (≈ 0.271 to 8.69 µM)
MIC [3]: < 0.125 µg/mL
SMILES: O=CN(O)C[C@@H](CC1CCCC1)C(=O)N1CCCCN1C(=O)Nc1ccc2c(c1)OCCO2 [Example 19, 2-[(2R)-Cyclopentylmethyl-3-(formylhydroxyamino)-propionyl]-tetrahydropyridazine-1-Carboxylic acid (2,3,4a,8a-tetrahydrobenzo[1,4]dioxin-6-yl)amide]
